Measured values published in patent US11021446B2 (NOVARTIS AG, priority 2013, dated 2021).

Target: T1, human Farnesoid X Receptor (FXR) ligand binding domain (GST-FXR LBD) (Homo sapiens, UniProt Q96RI1)
T1 construct: purchased Invitrogen
T1 sequence (Q96RI1 193-472 isoform Q96RI1-2): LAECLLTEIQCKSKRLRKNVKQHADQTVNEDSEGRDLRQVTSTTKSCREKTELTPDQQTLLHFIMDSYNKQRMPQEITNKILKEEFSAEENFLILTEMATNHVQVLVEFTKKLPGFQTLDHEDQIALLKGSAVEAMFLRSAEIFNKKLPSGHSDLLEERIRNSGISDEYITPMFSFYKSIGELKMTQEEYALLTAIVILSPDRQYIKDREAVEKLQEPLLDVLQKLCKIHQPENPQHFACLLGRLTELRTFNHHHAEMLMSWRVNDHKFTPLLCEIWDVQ
Test: Human GST-FXR LBD co-activator interaction assay (FXR HTRF assay)
Format: biochemical
Settings: GST-FXR LBD interaction with biotin-labeled SRC-1 peptide, FRET, response relative to GW4064, read-out: FXR coactivator interaction assay (HTRF)
Text: Human GST-FXR LBD Co-Activator Interaction Assay
The FXR HTRF assay is a biochemical assay measuring the interaction between FXR and a coactivator protein (SRC1). The ligand-induced interaction with a coactivator protein is a critical step in transcriptional activation by FXR. Thus, this is an assay designed to measure FXR agonist activity of the test compounds.
Recombinant human Farnesoid X Receptor (FXR) ligand binding domain (amino acids 193-472) fused to glutathione S-transferase (GST) purified protein (GST-FXR LBD) was purchased (Invitrogen). The ligand-dependent interaction between GST-FXR LBD and a peptide derived from Steroid Receptor Coactivator-1 (SRC-1) was monitored by Fluorescence Resonance Energy Transfer (FRET). […] Test compounds (in DMSO solution) and detection reagents (anti-GST-Cryptate labeled antibody and Streptavidin-XL665 conjugate; CisBio) were added in assay buffer containing 50 mM KF. Plates are incubated at room temperature in the dark for 2.5 hrs before reading on an Envision (PerkinElmer) at 665 nm and 590 nm. The HTRF assay results were calculated from the 665 nm/590 nm ratio (ratio=(A665 nm/A590 nm)×10^4) and expressed in Delta F %=(Ratiosample−Rationegative)/Rationegative×100.
A negative control (without Streptavidin-XL665) was run with each assay and represented the background fluorescence. A reference FXR agonist, (E)-3-(2-chloro-4-((3-(2,6-dichlorophenyl)-5-isopropylisoxazol-4-yl)methoxy)styryl)benzoic acid (Compound GW4064), was included in each experiment as positive control. The efficacy of each test compound was compared to that of GW4064. At each concentration, the relative activity of the test compound was expressed as Response %=(Rsample−RDMSO)/(Rpositive−RDMSO), where Rsample is the HTRF response (expressed in Delta F %) for the test compound, Rpositive is the maximal response for GW4064 at saturating concentrations, and RDMSO is the response for DMSO control. The EC50 values were calculated using GraphPad Prism (GraphPad Software) using non-linear regression curve fit (log(agonist) vs. response-variable slope (four parameters)).

Row | Compound | EC50 [pM]
1 | Cc1cccc(CN(CC(=O)Nc2cc(C(=O)O)ccc2F)C(=O)c2nn(C)c3c2COc2ccc(Cl)cc2-3)c1 [Compound 3, 3-(2-(8-chloro-1-methyl-N-(3-methylbenzyl)-1,4-dihydrochromeno[4,3-c]pyrazole-3-carboxamido)acetamido)-4-fluorobenzoic acid] | 510
2 | Cc1cccc(CN(CC(=O)Nc2cc(C(=O)O)ccc2F)C(=O)c2nn(C)c3c2COc2ccccc2-3)c1 [Compound 4, 4-fluoro-3-(2-(1-methyl-N-(3-methylbenzyl)-1,4-dihydrochromeno[4,3-c]pyrazole-3-carboxamido)acetamido)benzoic acid] | 750
3 | Cc1ccc2c(c1)-c1c(c(C(=O)N(CC(=O)Nc3cccc(C(=O)O)c3)Cc3ccccc3F)nn1C)CO2 [Compound 5, 3-(2-(N-(2-fluorobenzyl)-1,8-dimethyl-1,4-dihydrochromeno[4,3-c]pyrazole-3-carboxamido)acetamido)benzoic acid] | 800
4 | Cc1cccc2c1OCc1c(C(=O)N(CC(=O)Nc3cccc(C(=O)O)c3)Cc3ccccc3F)nn(C)c1-2 [Compound 6, 3-(2-(N-(2-fluorobenzyl)-1,6-dimethyl-1,4-dihydrochromeno[4,3-c]pyrazole-3-carboxamido)acetamido)benzoic acid] | 2400
5 | Cn1nc(C(=O)N(CC(=O)Nc2cccc(C(=O)O)c2)Cc2ccccc2F)c2c1-c1cc(F)ccc1OC2 [Compound 7, 3-(2-(8-fluoro-N-(2-fluorobenzyl)-1-methyl-1,4-dihydrochromeno[4,3-c]pyrazole-3-carboxamido)acetamido)benzoic acid] | 1000
6 | Cn1nc(C(=O)N(CC(=O)Nc2cccc(C(=O)O)c2)Cc2ccccc2F)c2c1-c1ccc(F)cc1OC2 [Compound 8, 3-(2-(7-fluoro-N-(2-fluorobenzyl)-1-methyl-1,4-dihydrochromeno[4,3-c]pyrazole-3-carboxamido)acetamido)benzoic acid] | 3300
7 | Cn1nc(C(=O)N(CC(=O)Nc2cccc(C(=O)O)c2)Cc2ccccc2F)c2c1-c1ccc(Cl)cc1OC2 [Compound 9, 3-(2-(7-chloro-N-(2-fluorobenzyl)-1-methyl-1,4-dihydrochromeno[4,3-c]pyrazole-3-carboxamido)acetamido)benzoic acid] | 3600
8 | Cn1nc(C(=O)N(CC(=O)Nc2cccc(C(=O)O)c2)Cc2ccccc2F)c2c1-c1cc(F)c(F)cc1OC2 [Compound 10] | 1700
9 | Cn1nc(C(=O)N(CC(=O)Nc2cccc(C(=O)O)c2)Cc2ccccc2F)c2c1-c1cc(F)cc(F)c1OC2 [Compound 11, 3-(2-(6,8-difluoro-N-(2-fluorobenzyl)-1-methyl-1,4-dihydrochromeno[4,3-c]pyrazole-3-carboxamido)acetamido)benzoic acid] | 3300
10 | Cn1nc(C(=O)N(CC(=O)Nc2cccc(C(=O)O)c2)Cc2ccccc2F)c2c1-c1ccccc1OC2 [Compound 12, 3-(2-(N-(2-fluorobenzyl)-1-methyl-1,4-dihydrochromeno[4,3-c]pyrazole-3-carboxamido)acetamido)benzoic acid] | 5400
11 | Cc1cc2c(cc1Cl)-c1c(c(C(=O)N(CC(=O)Nc3cccc(C(=O)O)c3)Cc3ccccc3F)nn1C)CO2 [Compound 13, 3-(2-(8-chloro-N-(2-fluorobenzyl)-1,7-dimethyl-1,4-dihydrochromeno[4,3-c]pyrazole-3-carboxamido)acetamido)benzoic acid] | 800
12 | Cc1cc(Cl)cc2c1OCc1c(C(=O)N(CC(=O)Nc3cccc(C(=O)O)c3)Cc3ccccc3F)nn(C)c1-2 [Compound 14, 3-(2-(8-chloro-N-(2-fluorobenzyl)-1,6-dimethyl-1,4-dihydrochromeno[4,3-c]pyrazole-3-carboxamido)acetamido)benzoic acid] | 840
13 | Cn1nc(C(=O)N(CC(=O)Nc2cccc(C(=O)O)c2)Cc2ccccc2F)c2c1-c1cc(Cl)cc(F)c1OC2 [Compound 15, 3-(2-(8-chloro-6-fluoro-N-(2-fluorobenzyl)-1-methyl-1,4-dihydrochromeno[4,3-c]pyrazole-3-carboxamido)acetamido)benzoic acid] | 2220
14 | Cn1nc(C(=O)N(CC(=O)Nc2cc(C(=O)O)ccc2F)Cc2ccccc2F)c2c1-c1ccccc1OC2 [Compound 16, 4-fluoro-3-(2-(N-(2-fluorobenzyl)-1-methyl-1,4-dihydrochromeno[4,3-c]pyrazole-3-carboxamido)acetamido)benzoic acid] | 3400
15 | Cn1nc(C(=O)N(CC(=O)Nc2cc(C(=O)O)ccc2F)Cc2ccccc2F)c2c1-c1cc(F)c(F)cc1OC2 [Compound 17, 3-(2-(7,8-difluoro-N-(2-fluorobenzyl)-1-methyl-1,4-dihydrochromeno[4,3-c]pyrazole-3-carboxamido)acetamido)-4-fluorobenzoic acid] | 1000
16 | Cn1nc(C(=O)N(CC(=O)Nc2cc(C(=O)O)ccc2F)Cc2cccc(F)c2)c2c1-c1cc(F)c(F)cc1OC2 [Compound 18, 3-(2-(7,8-difluoro-N-(3-fluorobenzyl)-1-methyl-1,4-dihydrochromeno[4,3-c]pyrazole-3-carboxamido)acetamido)-4-fluorobenzoic acid] | 400
17 | Cn1nc(C(=O)N(CC(=O)Nc2cc(C(=O)O)ccc2F)Cc2ccccc2)c2c1-c1cc(F)c(F)cc1OC2 [Compound 19, 3-(2-(N-benzyl-7,8-difluoro-1-methyl-1,4-dihydrochromeno[4,3-c]pyrazole-3-carboxamido)acetamido)-4-fluorobenzoic acid] | 500
18 | Cc1cccc(CN(CC(=O)Nc2cc(C(=O)O)ccc2F)C(=O)c2nn(C)c3c2COc2ccc(F)cc2-3)c1 [Compound 20, 4-fluoro-3-(2-(8-fluoro-1-methyl-N-(3-methylbenzyl)-1,4-dihydrochromeno[4,3-c]pyrazole-3-carboxamido)acetamido)benzoic acid] | 500
19 | Cn1nc(C(=O)N(CC(=O)Nc2cccc(C(=O)O)c2)Cc2ccccc2F)c2c1-c1cc(Cl)ccc1CC2 [Compound 24, 3-(2-(8-chloro-N-(2-fluorobenzyl)-1-methyl-4,5-dihydro-1H-benzo[g]indazole-3-carboxamido)acetamido)benzoic acid] | 3200
20 | Cn1nc(C(=O)N(CC(=O)Nc2cccc(C(=O)O)c2)Cc2ccccc2F)c2c1-c1cc(Cl)c(F)cc1OC2 [Compound 25, 3-(2-(8-chloro-7-fluoro-N-(2-fluorobenzyl)-1-methyl-1,4-dihydrochromeno[4,3-c]pyrazole-3-carboxamido)acetamido)benzoic acid] | 700
21 | Cn1nc(C(=O)N(CC(=O)Nc2cc(C(=O)O)ccc2F)Cc2cccc(F)c2)c2c1-c1ccccc1OC2 [Compound 27, 4-fluoro-3-(2-(N-(3-fluorobenzyl)-1-methyl-1,4-dihydrochromeno[4,3-c]pyrazole-3-carboxamido)acetamido)benzoic acid] | 1400
22 | Cn1nc(C(=O)N(CC(=O)Nc2cc(C(=O)O)ccc2F)Cc2cccc(F)c2)c2c1-c1cc(Cl)ccc1OC2 [Compound 28, 3-(2-(8-chloro-N-(3-fluorobenzyl)-1-methyl-1,4-dihydrochromeno[4,3-c]pyrazole-3-carboxamido)acetamido)-4-fluorobenzoic acid] | 380
23 | Cn1nc(C(=O)N(CC(=O)Nc2cc(C(=O)O)ccc2F)Cc2ccccc2)c2c1-c1cc(Cl)ccc1OC2 [Compound 29, 3-(2-(N-benzyl-8-chloro-1-methyl-1,4-dihydrochromeno[4,3-c]pyrazole-3-carboxamido)acetamido)-4-fluorobenzoic acid] | 670
24 | Cc1ccc(C(=O)O)cc1NC(=O)CN(Cc1ccccc1F)C(=O)c1nn(C)c2c1COc1ccc(Cl)cc1-2 [Compound 30] | 600
25 | Cn1nc(C(=O)N(CC(=O)Nc2cccc(C(=O)O)c2)Cc2ccccc2)c2c1-c1cc(Cl)ccc1OC2 [Compound 31, 3-(2-(N-benzyl-8-chloro-1-methyl-1,4-dihydrochromeno[4,3-c]pyrazole-3-carboxamido)acetamido)benzoic acid] | 470
26 | Cn1nc(C(=O)N(CC(=O)Nc2cc(C(=O)O)ccc2F)Cc2ccccc2)c2c1-c1cc(F)ccc1OC2 [Compound 32, 3-(2-(N-benzyl-8-fluoro-1-methyl-1,4-dihydrochromeno[4,3-c]pyrazole-3-carboxamido)acetamido)-4-fluorobenzoic acid] | 740
